In patent US10028966B2 (Avalyn Pharma Inc., priority 2014, dated 2018):
Read-outs that look alike come from different tables or passages of the source.

How the values were obtained:
[1] = Process temperature development study (60°C dissolution, cooling to 25°C); format: physicochemical
Description: […]. […] The final volume of each formulation was 5 mL. […] Each sample was mixed thoroughly and agitated overnight at 60° C. Rapid cooling and step-wise cooling from 60° C. to 25° C. was performed. HPLC analysis was performed on samples taken after overnight incubation and after cooling to 25° C. Prior to HPLC analysis, formulations were filtered via syringe through a 0.45 μm PVDF filter.

[2] = Pharmacokinetics and lung-tissue distribution after oral gavage or intratracheal aerosol; format: in vivo, Sprague-Dawley rats; conditions: for half-life: po, 70 mg/kg
Description: Solutions were vortexed until all crystals dissolved. […] Plasma samples were taken at pre-dose, 0.08, 0.16, 0.25, 0.5, 0.75, 1.0, 1.5, 2, 4, and 6 hours post dosing. For lung tissue samples, eight additional rats were also dosed 70 mg/kg by the oral route. Lungs were taken at pre-dose 0.08, 0.5, 2, and 4 hours post dosing. Materials were extracted and pirfenidone quantitated as μg/mL plasma and μg/gram lung tissue. […]

[3] = Extended-duration intratracheal and oral pharmacokinetic study; format: in vivo, Wistar rats; conditions: for AUC(0-t) / Cmax: Wistar, rat, plasma
Description: Previous intratracheal aerosol delivery (see Example 6) was performed as a single bolus instillation just above the first bifurcation of the lung. For in vivo efficacy studies, an attempt was made to mimic tidal inhaled breathing by splitting the dose into equal parts and administering as before, but over a 2 minute period. […] Doses were prepared in 0.45% sodium chloride solution and were administered as described in Table 21.
Plasma samples and entire lungs were taken at pre-dose, 2, 4, 6, 10, 30, 60 and 120 minutes post dosing. Materials were extracted and pirfenidone quantitated as mcg/mL plasma and μg/gram lung tissue.

[4] = Aqueous solubility, tonicity salt, dissolution and taste observations on pirfenidone formulations; format: physicochemical
Description: However, at this (and lower) concentration it was determined that salt addition was required to improve acute tolerability upon inhalation of a nebulized solution (otherwise a hypotonic solution). To address tonicity, NaCl or MgCl2 were added. […] This effect was not observed at ˜pH 8.

[5] = Intravenous push of pirfenidone, plasma and lung levels; format: in vivo; conditions: mouse
[6] = cited from earlier work; for AUC (0-18 hrs) / Cmax: human
[7] = cited from earlier work; for Cmax: read-out: oral Cmax in IPF patients
[8] = in vivo; cited from earlier work
[9] = 0% EtOH, 8% PG, 0% PS80, 92% phosphate buffer (5 mM), pH 6.6
[10] = 0% EtOH, 8% PG, 0.04% PS80, 92% phosphate buffer (5 mM), pH 6.7
[11] = 4% EtOH, 0% PG, 0.04% PS80, 96% phosphate buffer (5 mM), pH 6.6
[12] = 4% EtOH, 8% PG, 0% PS80, 88% phosphate buffer (5 mM), pH 6.7
[13] = 4% EtOH, 8% PG, 0.04% PS80, 88% phosphate buffer (5 mM), pH 6.7
[14] = inhaled or intranasal, intratracheal aerosol 2.5 mg/kg
[15] = inhaled or intranasal, intratracheal aerosol 5 mg/kg
[16] = inhaled or intranasal, intratracheal aerosol 10 mg/kg
[17] = intratracheal aerosol 2.5 mg/kg
[18] = oral 801 mg fasted-state, plasma

Cc1ccc(=O)n(-c2ccccc2)c1 [pirfenidone, 5-methyl-1-phenyl-2-(1H)-pyridone]
Observations: dissolution after overnight at 60° C. [1, 9]: Fully dissolved after overnight at
Observations: time stable at 25° C. before re-crystallization [1, 9]: 60 °C Stable at 25 °C for >4 hours
Pirfenidone (mg/mL) >60° C., assay content after stepwise cooling to 25° C. [1, 9]: 54.6 mg/mL
Pirfenidone (mg/mL) >Re-crystal, assay content after stepwise cooling to 25° C. and later re-crystallization [1, 9]: 18.6 mg/mL
Observations: dissolution after overnight at 60° C. [1, 10]: Fully dissolved after overnight at
Observations: time stable at 25° C. before re-crystallization [1, 10]: 60 °C Stable at 25 °C for >4 hours
Pirfenidone (mg/mL) >60° C., assay content after stepwise cooling to 25° C. [1, 10]: 52.8 mg/mL
Pirfenidone (mg/mL) >Re-crystal, assay content after stepwise cooling to 25° C. and later re-crystallization [1, 10]: 22.3 mg/mL
Observations: dissolution after overnight at 60° C. [1, 11]: Fully dissolved after overnight at
Observations: time stable at 25° C. before re-crystallization [1, 11]: 60 °C Stable at 25 °C for >4 hours
Pirfenidone (mg/mL) >60° C., assay content after stepwise cooling to 25° C. [1, 11]: 50.7 mg/mL
Pirfenidone (mg/mL) >Re-crystal, assay content after stepwise cooling to 25° C. and later re-crystallization [1, 11]: 22.4 mg/mL
Observations: dissolution after overnight at 60° C. [1, 12]: Fully dissolved after overnight at
Observations: time stable at 25° C. before re-crystallization [1, 12]: 60 °C Stable at 25 °C for >4 hours
Pirfenidone (mg/mL) >60° C., assay content after stepwise cooling to 25° C. [1, 12]: 50.34 mg/mL
Pirfenidone (mg/mL) >Re-crystal, assay content after stepwise cooling to 25° C. and later re-crystallization [1, 12]: 27.6 mg/mL
Observations: dissolution after overnight at 60° C. [1, 13]: Fully dissolved after overnight at
Observations: time stable at 25° C. before re-crystallization [1, 13]: 60 °C Stable at 25 °C for >4 hours
Pirfenidone (mg/mL) >60° C., assay content after stepwise cooling to 25° C. [1, 13]: 51.8 mg/mL
Pirfenidone (mg/mL) >Re-crystal, assay content after stepwise cooling to 25° C. and later re-crystallization [1, 13]: 26.8 mg/mL
behaviour on rapid cooling to 25°C ([1]; after dissolution at 60°C): rapid recrystallization
full dissolution concentration ([1]; heated to 60°C, 5 mM sodium phosphate pH 6.5 with ethanol, propylene glycol and/or polysorbate 80): ≥ 50 mg/mL
concentration staying in solution ([1]; slow step-wise cooling 60 to 25°C, for several hours before re-crystallization): about 50 mg/mL
half-life ([2]; Sprague-Dawley, rat, lung, read-out: Lung T1/2 α (only α observed)): 0.75 h
half-life ([2]; Sprague-Dawley, rat, plasma, read-out: Plasma T1/2): 0.5 h
Cmax ([2]; Sprague-Dawley, rat, plasma, oral 70 mg/kg): 8100 ng/mL
AUC(0-t) ([2]; Sprague-Dawley, rat, plasma, oral 70 mg/kg, read-out: Plasma AUC0-6 hrs): 13500 ng·h/mL
Lung Cmax ([2]; oral 70 mg/kg): 3.6 µg/g
Lung TOE, time of exposure over 1 μg/g lung tissue ([2]; oral 70 mg/kg): 89 min
Lung Tissue Cmax ([3]; 30 mg/kg PO, rat (Table 22)): ~10 µg/mL
AUC(0-t) [3, 14]: 3200 ng·h/mL
Cmax [3, 14]: 3400 ng/mL
AUC(0-t) [3, 15]: 5800 ng·h/mL
Cmax [3, 15]: 8800 ng/mL
AUC(0-t) [3, 16]: 14600 ng·h/mL
Cmax [3, 16]: 22800 ng/mL
AUC(0-t) ([3]; oral gavage 10 mg/kg): 4400 ng·h/mL
Cmax ([3]; oral gavage 10 mg/kg): 3600 ng/mL
AUC(0-t) ([3]; oral gavage 30 mg/kg): 12900 ng·h/mL
Cmax ([3]; oral gavage 30 mg/kg): 9800 ng/mL
AUC(0-t) ([3]; oral gavage 100 mg/kg): 24200 ng·h/mL
Cmax ([3]; oral gavage 100 mg/kg): 26300 ng/mL
Lung Tissue AUC(0-2 hr) [3, 17]: 3.5 µg·h/g
Lung Tissue Cmax [3, 17]: 14.4 μg/gram
Lung Tissue AUC(0-2 hr) ([3]; intratracheal aerosol 5 mg/kg): 6.6 µg·h/g
Lung Tissue Cmax ([3]; intratracheal aerosol 5 mg/kg): 27.9 μg/gram
Lung Tissue AUC(0-2 hr) ([3]; intratracheal aerosol 10 mg/kg): 14.5 µg·h/g
Lung Tissue Cmax ([3]; intratracheal aerosol 10 mg/kg): 61.1 μg/gram
adverse events ([3]; intratracheal aerosol over 2 minutes or oral gavage, Wistar rats): No adverse events were noted
Lung Tissue AUC(0-2 hr) ([3]; oral gavage 10 mg/kg): 4.9 µg·h/g
Lung Tissue Cmax ([3]; oral gavage 10 mg/kg): 3.5 μg/gram
Lung Tissue AUC(0-2 hr) ([3]; oral gavage 30 mg/kg): 13.5 µg·h/g
Lung Tissue Cmax ([3]; oral gavage 30 mg/kg): 9.8 μg/gram
Lung Tissue AUC(0-2 hr) ([3]; oral gavage 100 mg/kg): 27.9 µg·h/g
Lung Tissue Cmax ([3]; oral gavage 100 mg/kg): 33.6 μg/gram
formulation stability on storage ([4]; MgCl2 added, 1:1 and 1:2 mole ratios of magnesium to pirfenidone): maintained a stable, soluble solution
solubility ([4]; aqueous solution, aqueous buffer, across a pH range of about 4.0 to about 8.0): ~17 mg/mL
formulation stability on storage ([4]; ~17 mg/mL pirfenidone, NaCl added for tonicity, ambient storage): precipitation upon ambient storage
Lung Cmax ([5]; 40 mg/kg intravenous dose): 30 mcg/gram wet tissue
pirfenidone in the lung tissue after subtracting blood content ([5]; 40 mg/kg intravenous dose, blood assumed 40% of wet lung weight): about 8 mcg/g
wet lung half-life, longer than the plasma half-life ([5]; intravenous push): about 45%
Cmax ([5]; plasma, 40 mg/kg intravenous dose): ~55000 ng/mL
T1/2 beta ([6]; aerosol 47 mg RDD, lung tissue, from plasma T1/2, Rubino et al., 2009 fasted-state): 2.5 h
T1/2 beta ([6]; aerosol 47 mg RDD, plasma, Rubino et al., 2009 fasted-state): 2.5 h
AUC (0-18 hrs) [6, 18]: 67700 ng·h/mL
Cmax [6, 18]: 14.2 microgram/mL
AUC (0-18 hrs) ([6]; oral 801 mg fed-state, plasma): 58900 ng·h/mL
Cmax ([6]; oral 801 mg fed-state, plasma): 7.9 microgram/mL
T1/2 beta ([6]; oral 801 mg fasted-state, lung tissue, from plasma T1/2, Rubino et al., 2009): 2.5 h
T1/2 beta ([6]; oral 801 mg fasted-state, plasma, Rubino et al., 2009): 2.5 h
T1/2 beta ([6]; oral 801 mg fed-state, lung tissue, from plasma T1/2, Rubino et al., 2009): 2.4 h
T1/2 beta ([6]; oral 801 mg fed-state, plasma, Rubino et al., 2009): 2.4 h
time plasma level at or greater than 5 mcg/mL ([7]; 801 mg oral pirfenidone, human-measured value): 4 h
oral Cmax in IPF patients ([7]; fasting-state): about 15.7 mcg/mL
Cmax ([7]; fasting-state): ~84 µM
increase in Tmax ([7]; oral, fed-state): seven-fold
reduction in Cmax ([7]; oral, fed-state): ~50%
reduction in overall exposure ([7]; oral, fed-state): 10-15%
oral Cmax in IPF patients ([7]; recommended fed-state): about 7.9 mcg/mL
Cmax ([7]; recommended fed-state): ~42 µM
administered pirfenidone excreted in the urine [8]: about 80%
